In the NIST ThermoML archive (doi:10.1021/je8001267):

Conditions: Liquid, Closed cell (Static) method

N [ammonia]
Conditions | vapor or sublimation pressure [kPa]
303.12 K | 1166
313.14 K | 1553
323.16 K | 2030
333.13 K | 2609
343.13 K | 3305
353.13 K | 4132
363.12 K | 5105
373.16 K | 6243
